According to ChEMBL document CHEMBL1127189, “A facile synthesis of the novel Neurokinin A antagonist SR 48968” (Bioorg Med Chem Lett, 1993):

What was measured:
Cavia porcellus [1] = assay: Intraperitoneal dose required for inhibition of [Nle10]-NKA4-10 induced bronchoconstriction in guinea pig; format: functional; conditions: ip
Cavia porcellus [2] = assay: Intravenous dose required for inhibition of [Nle10]-NKA4-10 induced bronchoconstriction in guinea pig; format: functional

With `CC(=O)NC1(c2ccccc2)CCN(CC[C@H](CN(C)C(=O)c2ccccc2)c2ccc(Cl)c(Cl)c2)CC1` [SAREDUTANT] the ED50 (Cavia porcellus [1]) was 0.35 mg/kg and the ED50 (Cavia porcellus [2]) was 0.037 mg/kg.
